Measured values as given in ChEMBL document CHEMBL4138247, “Synthesis of new triterpenic monomers and dimers as potential antiproliferative agents and their molecular docking studies” (Eur J Med Chem, 2018).

Columns and labels:
Type in all cases: functional, cell-based
A2780 = assay: Antiproliferative activity against human A2780 cells after 96 hrs by SRB assay; conditions: A2780, 96 h
HT-29 = assay: Antiproliferative activity against human HT-29 cells after 96 hrs by SRB assay; conditions: HT-29, 96 h
A-375 = assay: Antiproliferative activity against human A375 cells after 96 hrs by SRB assay; conditions: A-375, 96 h
FaDu = assay: Antiproliferative activity against human FADU cells after 96 hrs by SRB assay

C/C(=C\CC/C(C)=C/CC[C@@H]1[C@@]2(C)CCC(=O)C(C)(C)[C@@H]2CC[C@@]1(C)O)CC/C=C(\C)C(=O)OCCCOC(=O)/C(C)=C/CC/C(C)=C/CC/C(C)=C/CC[C@@H]1[C@@]2(C)CC[C@@H](O)C(C)(C)[C@@H]2CC[C@@]1(C)O
IC50 (A2780): 14.8 µM | IC50 (HT-29): 6.8 µM | IC50 (A-375): 11.1 µM | IC50 (FaDu): 25.1 µM

C/C(=C\CC/C(C)=C/CC[C@@H]1[C@@]2(C)CCC(=O)C(C)(C)[C@@H]2CC[C@@]1(C)O)CC/C=C(\C)C(=O)OCCCCBr
IC50 (A2780): 21.6 µM | IC50 (HT-29): 14.6 µM | IC50 (A-375): 14.5 µM | IC50 (FaDu): > 30 µM

C/C(=C\CC/C(C)=C/CC[C@@H]1[C@@]2(C)CCC(=O)C(C)(C)[C@@H]2CC[C@@]1(C)O)CC/C=C(\C)C(=O)OCCOC(=O)[C@@]1(C)[C@H](O)CC[C@@]2(C)[C@H]1CC[C@]1(C)[C@@H]2C(=O)C=C2[C@@H]3[C@@H](C)[C@H](C)CC[C@]3(C)CC[C@]21C
IC50 (A2780): > 30 µM | IC50 (HT-29): > 30 µM | IC50 (A-375): > 30 µM | IC50 (FaDu): > 30 µM

C/C(=C\CC/C(C)=C/CC[C@@H]1[C@@]2(C)CCC(=O)C(C)(C)[C@@H]2CC[C@@]1(C)O)CC/C=C(\C)C(=O)OCCCCOC(=O)[C@@]1(C)[C@H](O)CC[C@@]2(C)[C@H]1CC[C@]1(C)[C@@H]2C(=O)C=C2[C@@H]3[C@@H](C)[C@H](C)CC[C@]3(C)CC[C@]21C
IC50 (A2780): > 30 µM | IC50 (HT-29): > 30 µM | IC50 (A-375): > 30 µM | IC50 (FaDu): > 30 µM

C/C(=C\CC/C(C)=C/CC[C@@H]1[C@@]2(C)CCC(=O)C(C)(C)[C@@H]2CC[C@@]1(C)O)CC/C=C(\C)C(=O)OCCCOC(=O)/C(C)=C/CC/C(C)=C/CC/C(C)=C/CC[C@@H]1[C@@]2(C)CCC(=O)C(C)(C)[C@@H]2CC[C@@]1(C)O
IC50 (A2780): 16 µM | IC50 (HT-29): 5.4 µM | IC50 (A-375): 10.4 µM | IC50 (FaDu): > 30 µM

C=C(C)[C@@H]1CC[C@]2(C)CC[C@]3(C)[C@H](CC[C@@H]4[C@@]5(C)CC[C@@H](O)[C@](C)(C(=O)OCCBr)[C@@H]5CC[C@]43C)[C@@H]12
IC50 (A2780): 29 µM | IC50 (HT-29): 23 µM | IC50 (A-375): 17.4 µM | IC50 (FaDu): 26.4 µM

C=C(C)[C@@H]1CC[C@]2(C(=O)OCCCCOC(=O)/C(C)=C/CC/C(C)=C/CC/C(C)=C/CC[C@@H]3[C@@]4(C)CCC(=O)C(C)(C)[C@@H]4CC[C@@]3(C)O)CC[C@]3(C)[C@H](CC[C@@H]4[C@@]5(C)CC[C@H](O)C(C)(C)[C@@H]5CC[C@]43C)[C@@H]12
IC50 (A2780): > 30 µM | IC50 (HT-29): > 30 µM | IC50 (A-375): > 30 µM | IC50 (FaDu): > 30 µM

C=C(C)[C@@H]1CC[C@]2(C)CC[C@]3(C)[C@H](CC[C@@H]4[C@@]5(C)CC[C@@H](O)[C@](C)(C(=O)OCCCBr)[C@@H]5CC[C@]43C)[C@@H]12
IC50 (A2780): 26.9 µM | IC50 (HT-29): 24.5 µM | IC50 (A-375): 16.7 µM | IC50 (FaDu): 27.1 µM

C/C(=C\CC/C(C)=C/CC[C@@H]1[C@@]2(C)CCC(=O)C(C)(C)[C@@H]2CC[C@@]1(C)O)CC/C=C(\C)C(=O)OCCBr
IC50 (A2780): > 30 µM | IC50 (HT-29): > 30 µM | IC50 (A-375): > 30 µM | IC50 (FaDu): > 30 µM

C/C(=C\CC/C(C)=C/CC[C@@H]1[C@@]2(C)CCC(=O)C(C)(C)[C@@H]2CC[C@@]1(C)O)CC/C=C(\C)C(=O)OCCOC(=O)/C(C)=C/CC/C(C)=C/CC/C(C)=C/CC[C@@H]1[C@@]2(C)CCC(=O)C(C)(C)[C@@H]2CC[C@@]1(C)O
IC50 (A2780): > 30 µM | IC50 (HT-29): 14 µM | IC50 (A-375): 24.5 µM | IC50 (FaDu): > 30 µM

C/C(=C\CC/C(C)=C/CC[C@@H]1[C@@]2(C)CCC(=O)C(C)(C)[C@@H]2CC[C@@]1(C)O)CC/C=C(\C)C(=O)OCCCCOC(=O)/C(C)=C/CC/C(C)=C/CC/C(C)=C/CC[C@@H]1[C@@]2(C)CCC(=O)C(C)(C)[C@@H]2CC[C@@]1(C)O
IC50 (A2780): 24.2 µM | IC50 (HT-29): 8.8 µM | IC50 (A-375): 12.4 µM | IC50 (FaDu): > 30 µM

C/C(=C\CC/C(C)=C/CC[C@@H]1[C@@]2(C)CCC(=O)C(C)(C)[C@@H]2CC[C@@]1(C)O)CC/C=C(\C)C(=O)OCCCOC(=O)[C@@]1(C)[C@H](O)CC[C@@]2(C)[C@H]1CC[C@]1(C)[C@@H]2C(=O)C=C2[C@@H]3[C@@H](C)[C@H](C)CC[C@]3(C)CC[C@]21C
IC50 (A2780): > 30 µM | IC50 (HT-29): > 30 µM | IC50 (A-375): > 30 µM | IC50 (FaDu): > 30 µM

C/C(=C\CC/C(C)=C/CC[C@@H]1[C@@]2(C)CCC(=O)C(C)(C)[C@@H]2CC[C@@]1(C)O)CC/C=C(\C)C(=O)OCCCCOC(=O)/C(C)=C/CC/C(C)=C/CC/C(C)=C/CC[C@@H]1[C@@]2(C)CC[C@H](O)C(C)(C)[C@@H]2CC[C@@]1(C)O
IC50 (A2780): 16.1 µM | IC50 (HT-29): 8.2 µM | IC50 (A-375): 10.6 µM | IC50 (FaDu): 28.2 µM

C/C(=C\CC/C(C)=C/CC[C@@H]1[C@@]2(C)CCC(=O)C(C)(C)[C@@H]2CC[C@@]1(C)O)CC/C=C(\C)C(=O)OCCCBr
IC50 (A2780): 18.1 µM | IC50 (HT-29): 8.1 µM | IC50 (A-375): 11.8 µM | IC50 (FaDu): > 30 µM

C=C(C)[C@@H]1CC[C@]2(C)CC[C@]3(C)[C@H](CC[C@@H]4[C@@]5(C)CC[C@@H](O)[C@](C)(C(=O)OCCCCBr)[C@@H]5CC[C@]43C)[C@@H]12
IC50 (A2780): > 30 µM | IC50 (HT-29): > 30 µM | IC50 (A-375): 18 µM | IC50 (FaDu): > 30 µM

C/C(=C\CC/C(C)=C/CC[C@@H]1[C@@]2(C)CCC(=O)C(C)(C)[C@@H]2CC[C@@]1(C)O)CC/C=C(\C)C(=O)OCCOC(=O)/C(C)=C/CC/C(C)=C/CC/C(C)=C/CC[C@@H]1[C@@]2(C)CC[C@@H](O)C(C)(C)[C@@H]2CC[C@@]1(C)O
IC50 (A2780): 20.7 µM | IC50 (HT-29): 10 µM | IC50 (A-375): 15.5 µM | IC50 (FaDu): > 30 µM
